Experimental findings from patent publication US4963566A, “Benzimidazolyl-sulfinyl-tetrahydroquinolines” (Otsuka Pharmaceutical Co., Ltd., priority 1986, dated 1990) are described below.

In the test the target is T1, H^+ +K^+ ATPase (Sus scrofa, UniProt P19156).
T1 construct: prepared from porcine stomach; from tissue; host or cells: porcine stomach
T1 sequence (P19156 2-1034 limits assumed): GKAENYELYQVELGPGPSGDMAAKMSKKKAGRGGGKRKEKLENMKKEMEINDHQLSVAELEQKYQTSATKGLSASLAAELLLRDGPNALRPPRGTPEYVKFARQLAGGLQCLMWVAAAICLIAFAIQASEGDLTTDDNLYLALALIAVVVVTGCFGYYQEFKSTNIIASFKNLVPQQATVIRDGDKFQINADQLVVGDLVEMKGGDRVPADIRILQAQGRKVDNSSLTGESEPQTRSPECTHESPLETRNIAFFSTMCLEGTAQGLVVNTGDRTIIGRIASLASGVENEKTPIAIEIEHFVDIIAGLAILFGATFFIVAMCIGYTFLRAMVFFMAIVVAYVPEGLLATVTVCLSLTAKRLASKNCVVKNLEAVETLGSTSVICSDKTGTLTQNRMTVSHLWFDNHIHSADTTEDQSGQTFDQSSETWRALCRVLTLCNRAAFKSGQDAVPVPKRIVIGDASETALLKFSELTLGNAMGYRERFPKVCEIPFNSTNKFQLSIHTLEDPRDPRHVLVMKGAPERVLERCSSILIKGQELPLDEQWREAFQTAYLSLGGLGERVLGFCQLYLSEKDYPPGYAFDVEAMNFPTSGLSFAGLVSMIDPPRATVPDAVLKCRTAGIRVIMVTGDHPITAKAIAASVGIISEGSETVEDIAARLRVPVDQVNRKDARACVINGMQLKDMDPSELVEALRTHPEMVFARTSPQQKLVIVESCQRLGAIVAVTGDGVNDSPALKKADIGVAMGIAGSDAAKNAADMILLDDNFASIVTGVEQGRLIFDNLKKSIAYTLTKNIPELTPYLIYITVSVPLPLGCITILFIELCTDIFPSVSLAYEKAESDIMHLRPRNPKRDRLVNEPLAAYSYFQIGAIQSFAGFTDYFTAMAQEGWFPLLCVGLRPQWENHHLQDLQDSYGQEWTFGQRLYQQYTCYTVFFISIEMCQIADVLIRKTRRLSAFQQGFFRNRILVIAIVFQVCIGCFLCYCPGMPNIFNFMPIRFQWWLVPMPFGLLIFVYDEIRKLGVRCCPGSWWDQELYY
T1 sequence (P18434 whole entry partner): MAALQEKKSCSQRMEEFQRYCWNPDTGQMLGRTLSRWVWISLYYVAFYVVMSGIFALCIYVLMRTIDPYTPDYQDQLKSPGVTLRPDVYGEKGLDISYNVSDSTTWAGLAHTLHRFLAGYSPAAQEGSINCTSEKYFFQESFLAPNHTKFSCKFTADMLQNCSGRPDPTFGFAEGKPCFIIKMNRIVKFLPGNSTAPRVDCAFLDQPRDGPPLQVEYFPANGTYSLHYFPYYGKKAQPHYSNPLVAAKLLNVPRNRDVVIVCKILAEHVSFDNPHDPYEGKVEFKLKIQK
The experiment in a line: H+ +K+ ATPase inhibition (inorganic phosphoric acid release). Type of test: biochemical. The settings on record: enzyme prepared from porcine stomach; 30 min with compound at room temperature, pH 6.1; then 30 min at 37° C., pH 7.4, 20 mM KCl. Here is the method:
H^+ +K^+ ATPase (adenosine triphosphatase) (amount of protein: 10 μg) prepared from porcine stomach was added to a Pipes-TRIS [i.e. 2-amino-2-(hydroxymethyl)-1,3-propanediol] buffer solution (pH 6.1) containing 2 mM of piperazine N,N'-bis(2-ethanesulfonic acid), and the mixture was let stand at room temperature. A test compound was dissolved in dimethyl formamide, and the mixture was added to said H^+ +K^+ ATPase buffer solution so that the final concentration should be 1% and let stand for reaction for 30 minutes at room temperature. Then a 75 mM Pipes-TRIS buffer (1 ml, pH 7.4) (containing 4 mM MgCl2, 4 mM Na2 ATP, and 20 mM KCl) and a 75 mM Pipes-TRIS buffer (1 ml, pH 7.4) (containing 4 mM MgCl2, and 4 mM Na2 ATP) were added to the solution individually to make two kinds of samples and these samples were presented for reaction for 30 minutes at 37° C. 40% Trichloroacetic acid (0.3 ml) was added to each sample to stop the reaction. The solution were subjected to centrifugal separation (3000 rpm) for 10 minutes, and the supernatant was taken off, then the formed inorganic phosphoric acid was measured by Fiske and Subbarow's method [J. Biol. Chem. vol. 66, 375 (1925)]. The value of deducting the amount of inorganic phosphoric acid taken from the Pipes-Tris buffer not containing 20 mM KCl from that taken from the Pipes-Tris buffer containing 20 mM KCl was calculated in terms of unit protein and unit hour to be defined as an activity index of enzyme. Inhibition level (%) in doses of administration was estimated by control values and activity indices of enzyme, and from the obtained inhibition level (%), IC50 (dose of administration of compounds to inhibit in 50%) was obtained.
With “1,4-dimethyl-8-(5-fluoro-6-methyl-2-benzimidazolyl)sulfinylmethyl-1,2,3,4- tetrahydroquinoline [Test compound No. 30]”, the IC50 (as a rule, the concentration that gives 50% inhibition) amounted to 610 nM.

As to `CCN1CCCc2cccc(C[S+]([O-])c3nc4ccc(C)cc4[nH]3)c21` (stereo not drawn) [Test compound No. 2, 1-ethyl-8-(5-methyl-2-benzimidazolyl)sulfinylmethyl-1,2,3,4-tetrahydroquinoline], the IC50 came to 180 nM.

On to `CCN1CCCc2cccc(C[S+]([O-])c3nc4ccc(OC)cc4[nH]3)c21` (stereo not drawn) [Test compound No. 3, 1-ethyl-8-(5-methoxy-2-benzimidazolyl)sulfinylmethyl-1,2,3,4-tetrahydroquinoline], for which the IC50 is 450 nM.

Regarding `CCN1CCCc2cccc(C[S+]([O-])c3nc4ccc(F)cc4[nH]3)c21` (stereo not drawn) [Test compound No. 4, 1-ethyl-8-(5-fluoro-2-benzimidazolyl)sulfinylmethyl-1,2,3,4-tetrahydroquinoline], the IC50 was 1000 nM.

For `CCN1CCCc2cccc(C[S+]([O-])c3nc4cc(F)c(F)cc4[nH]3)c21` (stereo not drawn) [Test compound No. 5, 1-ethyl-8-(5,6-difluoro-2-benzimidazolyl)sulfinylmethyl-1,2,3,4-tetrahydroquinoline], the IC50 turned out to be 440 nM.

On to `CCN1CCCc2cccc(C[S+]([O-])c3nc4cc(OC)c(F)cc4[nH]3)c21` (stereo not drawn) [Test compound No. 6, 1-ethyl-8-(5-fluoro-6-methoxy-2-benzimidazolyl)sulfinylmethyl-1,2,3,4-tetrahydroquinoline], for which the IC50 was found to be 620 nM.

For `CCOc1cc2[nH]c([S+]([O-])Cc3cccc4c3N(CC)CCC4)nc2cc1F` (stereo not drawn) [Test compound No. 7, 1-ethyl-8-(5-ethoxy-6-fluoro-2-benzimidazolyl)sulfinylmethyl-1,2,3,4-tetrahydroquinoline], the IC50 amounted to 1600 nM.

On to `CCN1CCCc2cccc(C[S+]([O-])c3nc4ccc(Cl)cc4[nH]3)c21` (stereo not drawn) [Test compound No. 8, 1-ethyl-8-(5-chloro-2-benzimidazolyl)sulfinylmethyl-1,2,3,4-tetrahydroquinoline], for which the concentration for half-maximal inhibition (IC50) turned out to be 220 nM.

Turning to `CCN1CCCc2cccc(C[S+]([O-])c3nc4ccc(C(C)=O)cc4[nH]3)c21` (stereo not drawn) [Test compound No. 9, 1-ethyl-8-(5-acetyl-2-benzimidazolyl)sulfinylmethyl-1,2,3,4-tetrahydroquinoline], the IC50 was 2200 nM.

With `CCN1CCCc2cccc(C[S+]([O-])c3nc4ccc(C(F)(F)F)cc4[nH]3)c21` (stereo not drawn) [Test compound No. 10, 1-ethyl-8-(5-trifluoromethyl-2-benzimidazolyl)sulfinylmethyl-1,2,3,4-tetrahydroquinoline], the IC50 is 370 nM.

In the case of `CCN1CCCc2cccc(C[S+]([O-])c3nc4cccc(C)c4[nH]3)c21` (stereo not drawn) [Test compound No. 11, 1-ethyl-8-(4-methyl-2-benzimidazolyl)sulfinylmethyl-1,2,3,4-tetrahydroquinoline], the IC50 came out at 500 nM.

Regarding `CCN1CCCc2cccc(C[S+]([O-])c3nc4cc(C)cc(C)c4[nH]3)c21` (stereo not drawn) [Test compound No. 12, 1-ethyl-8-(4,6-dimethyl-2-benzimidazolyl)sulfinylmethyl-1,2,3,4-tetrahydroquinoline], the IC50 was 420 nM.

For `CCN1CCCc2cccc(C[S+]([O-])c3nc4cc(C)c(C)cc4[nH]3)c21` (stereo not drawn) [Test compound No. 13, 1-ethyl-8-(5,6-dimethyl-2-benzimidazolyl)sulfinylmethyl-1,2,3,4-tetrahydroquinoline], the IC50 is 170 nM.

Consider `CN1CCCc2cccc(C[S+]([O-])c3nc4ccccc4[nH]3)c21` (stereo not drawn) [Test compound No. 14, 1-methyl-8-(2-benzimidazolyl)sulfinylmethyl-1,2,3,4-tetrahydroquinoline], for which the half-inhibitory concentration (IC50) turned out to be 170 nM.

Consider `CN1CCCc2cccc(C[S+]([O-])c3nc4ccc(F)cc4[nH]3)c21` (stereo not drawn) [Test compound No. 15, 1-methyl-8-(5-fluoro-2-benzimidazolyl)sulfinylmethyl-1,2,3,4-tetrahydroquinoline], for which the IC50 stood at 530 nM.

With `COc1ccc2nc([S+]([O-])Cc3cccc4c3N(C)CCC4)[nH]c2c1` (stereo not drawn) [Test compound No. 16, 1-methyl-8-(5-methoxy-2-benzimidazolyl)sulfinylmethyl-1,2,3,4-tetrahydroquinoline], the half-maximal inhibitory concentration (IC50) worked out at 690 nM.

As to `Cc1ccc2nc([S+]([O-])Cc3cccc4c3N(C)CCC4)[nH]c2c1` (stereo not drawn) [Test compound No. 17, 1-methyl-8-(5-methyl-2-benzimidazolyl)sulfinylmethyl-1,2,3,4-tetrahydroquinoline], the IC50 turned out to be 530 nM.

In the case of `CN1CCCc2cccc(C[S+]([O-])c3nc4ccc(Cl)cc4[nH]3)c21` (stereo not drawn) [Test compound No. 18, 1-methyl-8-(5-chloro-2-benzimidazolyl)sulfinylmethyl-1,2,3,4-tetrahydroquinoline], the IC50 amounted to 200 nM.

In the case of `Cc1cccc2nc([S+]([O-])Cc3cccc4c3N(C)CCC4)[nH]c12` (stereo not drawn) [Test compound No. 19, 1-methyl-8-(4-methyl-2-benzimidazolyl)sulfinylmethyl-1,2,3,4-tetrahydroquinoline], the IC50 was found to be 410 nM.

Turning to `COc1cc2nc([S+]([O-])Cc3cccc4c3N(C)CCC4)[nH]c2cc1F` (stereo not drawn) [Test compound No. 20, 1-methyl-8-(5-fluoro-6-methoxy-2-benzimidazolyl)sulfinylmethyl-1,2,3,4-tetrahydroquinoline], the IC50 was 330 nM.

Take `C=CCN1CCCc2cccc(C[S+]([O-])c3nc4ccccc4[nH]3)c21` (stereo not drawn) [Test compound No. 21, 1-allyl-8-(2-benzimidazolyl)sulfinylmethyl-1,2,3,4-tetrahydroquinoline]: the IC50 stood at 330 nM.

For `C=CCN1CCCc2cccc(C[S+]([O-])c3nc4ccc(OC)cc4[nH]3)c21` (stereo not drawn) [Test compound No. 22, 1-allyl-8-(5-methoxy-2-benzimidazolyl)sulfinylmethyl-1,2,3,4-tetrahydroquinoline], the IC50 turned out to be 960 nM.

Turning to `C=CCN1CCCc2cccc(C[S+]([O-])c3nc4ccc(F)cc4[nH]3)c21` (stereo not drawn) [Test compound No. 23, 1-allyl-8-(5-fluoro-2-benzimidazolyl)sulfinylmethyl-1,2,3,4-tetrahydroquinoline], the IC50 stood at 490 nM.

Take `CCCCN1CCCc2cccc(C[S+]([O-])c3nc4ccccc4[nH]3)c21` (stereo not drawn) [Test compound No. 24, 1-n-butyl-8-(2-benzimidazolyl)sulfinylmethyl-1,2,3,4-tetrahydroquinoline]: the IC50 was determined as 180 nM.

For `CCCCN1CCCc2cccc(C[S+]([O-])c3nc4ccc(C)cc4[nH]3)c21` (stereo not drawn) [Test compound No. 25, 1-n-butyl-8-(5-methyl-2-benzimidazolyl)sulfinylmethyl-1,2,3,4-tetrahydroquinoline], the IC50 was 330 nM.

As to `C#CCN1CCCc2cccc(C[S+]([O-])c3nc4ccccc4[nH]3)c21` (stereo not drawn) [Test compound No. 26, 1-propargyl-8-(2-benzimidazolyl)sulfinylmethyl-1,2,3,4-tetrahydroquinoline], the half-maximal inhibitory concentration (IC50) amounted to 1600 nM.

For `Cc1ccc2nc([S+]([O-])Cc3cccc4c3N(Cc3ccccc3)CCC4)[nH]c2c1` (stereo not drawn) [Test compound No. 28, 1-benzyl-8-(5-methyl-2-benzimidazolyl)sulfinylmethyl-1,2,3,4-tetrahydroquinoline], the half-inhibitory concentration (IC50) turned out to be 650 nM.

Turning to `CC1CCN(C)c2c(C[S+]([O-])c3nc4ccccc4[nH]3)cccc21` (stereo not drawn) [Test compound No. 29, 1,4-dimethyl-8-(2-benzimidazolyl)sulfinylmethyl-1,2,3,4-tetrahydroquinolin], the IC50 is 250 nM.

For the compound `CCN1CCCc2cc(Br)cc(C[S+]([O-])c3nc4ccccc4[nH]3)c21` (stereo not drawn) [Test compound No. 31, 1-ethyl-6-bromo-8-(2-benzimidazolyl)sulfinylmethyl-1,2,3,4-tetrahydroquinoline], the IC50 was 6400 nM.

Turning to `CCN1CCCc2cc(C)cc(C[S+]([O-])c3nc4ccccc4[nH]3)c21` (stereo not drawn) [Test compound No. 32, 1-ethyl-6-methyl-8-(2-benzimidazolyl)sulfinylmethyl-1,2,3,4-tetrahydroquinoline], the IC50 is 920 nM.

Regarding `C=CCN1CCCc2cccc(C[S+]([O-])c3nc4ccc(C)cc4[nH]3)c21` (stereo not drawn) [Test compound No. 33, 1-allyl-8-(5-methyl-2-benzimidazolyl)sulfinylmethyl-1,2,3,4-tetrahydroquinoline], the IC50 worked out at 580 nM.

As for `Cc1ccc2nc([S+]([O-])Cc3cccc4c3N(Cc3ccc(F)cc3)CCC4)[nH]c2c1` (stereo not drawn) [Test compound No. 34, 1-(4-fluorobenzyl)-8-(5-methyl-2-benzimidazolyl)sulfinylmethyl-1,2,3,4-tetrahydroquinoline], the IC50 worked out at 2100 nM.

Turning to `[O-][S+](Cc1cccc2c1N(CC1CC1)CCC2)c1nc2ccccc2[nH]1` (stereo not drawn) [Test compound No. 35, 1-cyclopropylmethyl-8-(2-benzimidazolyl)sulfinylmethyl-1,2,3,4-tetrahydroquinoline], the IC50 is 250 nM.
